What was measured:
IL-8 secretion = test: Inhibitory activity on Bradykinin B1 agonist-induced secretion of IL-8 in human IMR-90 cells; assay type: cell-based; conditions: 30 min compound, stimulated with 0.1 μM Lys-[Des-Arg9]Bradykinin and 0.1 μM Sar-[D-Phe8]-des-Arg9-Bradykinin for 5 hours
Text: (§1) Inhibitory activity on Bradykinin B1 agonist-induced secretion of IL-6 and IL-8 in human IMR-90 cells
(§2) The effect of the compound examples on secretion of the cytokine IL-6 and IL-8 has been investigated in the human foetal lung fibroblast IMR-90 cell line. Here the induction of the cytokine secretion was induced by the Bradykinin B1 agonists Lys-[Des-Arg9]Bradykinin (CAS 71800-36-7, Tocris Bioscience) and Sar-[D-Phe8]-des-Arg9-Bradykinin (CAS 126959-88-4, Tocris Bioscience) leading to the activation of the Bradykinin B1-driven signalling pathway. This effect is indicative for a strong anti-inflammatory mode of action in kinin driven inflammation.
(§3) IMR-90 cells were cultured in Eagle's Minimum Essential Medium (EMEM) containing 2 mM L-glutamine, 1 g/L glucose, 1.5 g/L NaHCO3, 1 mM sodium pyruvate and non-essential amino acids (ATCC, 30-2003™) supplemented with 10% FBS (Biochrom, S0615) and 50 U/mL Penicillin, 50 μg/mL Streptomycin (PAA, P11-010). The assay was performed in EMEM and a cell density of […] IMR-90 cells/96-well. The compound examples have been serial diluted in 100% DMSO and evaluated at 8 different concentrations within the range of 3 nM and 10 μM and a final DMSO concentration of 0.4%. The IMR-90 cells have been incubated with the respective concentration of the compound for 30 min. The enhanced secretion of IL-6 and IL-8 was induced by the stimulation of these cells with 0.1 μM Lys-[Des-Arg9]Bradykinin (Tocris, catalogue no. 3225) and 0.1 μM Sar-[D-Phe8]-des-Arg9-Bradykinin (Tocris, catalogue no. 3230) for 5 hours at 37° C. and 5% C02. Further, cells have been treated with Lys-[Des-Arg9]Bradykinin and Sar-[D-Phe8]-des-Arg9-Bradykinin as neutral control and with 0.1% DMSO as inhibitor control. The amount of IL-6 and IL-8 in the supernatant was determined using the Human Prolnflammatory Panel II (4-Plex) (MSD, K15025B) according to manufacturer's instruction. Briefly, supernatants were added onto assay plates and incubated at room temperature for 1-2 h with vigorous shaking at 600 rpm. Detection antibodies were then added onto the supernatants and incubated at room temperature for an additional 1-2 h with vigorous shaking at 600 rpm. Plates were washed three times with phosphate-buffered saline (PBS; 137 mM NaCl, 2.7 mM KCl, 6.5 mM Na2HPO4, 1.7 mM KH2P04) containing 0.05% Tween-20 (Bio-Rad, 161-0781) and electrochemiluminescence detected using the MSD Sector Imager 6000 plate reader. The cell viability was measured using the CellTiter-Glo Luminescent Assay (Promega, G7571) following the manufacturers protocol. Briefly, the CellTiter-Glo Reagent was diluted with PBS (1:1) and added directly to cells. After incubation and shaking for 10 minutes luminescent signal was measured which is proportional to the amount of ATP present.
(§4) The effect of the compound on the amount of secreted cytokine has been calculated as 100/(measured cytokine concentration of neutral control-measured cytokine concentration of inhibitor control)*(measured cytokine concentration of compound dose-measured cytokine concentration of inhibitor control). IC50 values are determined using 4-parameter-fit.
(§5) The compound examples were tested in triplicates per plate and the inhibitory activity was determined as the relation between neutral and inhibitor control in percent. IC50 values were calculated using the 4-parameter logistic model.

IL-6 secretion = test: Inhibitory activity on Bradykinin B1 agonist-induced secretion of IL-6 in human IMR-90 cells; assay type: cell-based; conditions: 30 min compound, stimulated with 0.1 μM Lys-[Des-Arg9]Bradykinin and 0.1 μM Sar-[D-Phe8]-des-Arg9-Bradykinin for 5 hours
Text: as §1, §2, §3, §4, §5

[1] = test system: CFA-induced mechanical hyperalgesia; test: Rat CFA in vivo model (mechanical hyperalgesia, paw withdrawal threshold); conditions: dosed 1 h before CFA and 24 h later, mean ± S.D.
Method: Male Sprague Dawley rats were used. Mechanical hyperalgesia was induced by injecting 25 μL of Complete Freund's Adjuvant (CFA) into the plantar surface of one hind paw. Mechanical hyperalgesia was measured using the Pressure Application Measurement apparatus (Ugo Basile, Gemonio, Italy). Briefly, a linearly increasing pressure was applied to an area of ˜ 50 mm2 of the plantar side of the hind paw until a behavioural response (paw withdrawal) was observed or until the pressure reached 1000 gf. The pressure at which the behavioural response occurred was recorded as the “Paw Withdrawal Threshold” (PWT). Both CFA-injected and contralateral PWTs were determined for each rat, in each treatment group and for the vehicle group at each time point of the studies. Each compound example was administered orally in the vehicle solution of dimethylsulfoxide (DMSO), Polyethylenglycol (PEG) and 2-Hydroxypropyl-beta-cyclodextrin (HPCD) (v/v/v=3:20:77). Rats received a first dose as specified in Table 3 in a solution of 5 mL/kg bodyweight application volume 1 hour before CFA injection and a second dose 24 hours later. Mechanical hyperalgesia testing was performed approximately 2 hours before CFA injection, then 2 and 4 hours after the second dose of compound example (i.e. 26 and 28 hours after CFA treatment). Animals in the vehicle group were treated in the identical way like the other groups but without compound in the orally applied solution. Data were expressed as the mean±S.D. Area Under the Curve (AUC) of PWTs (defined in table 3 as “AUC of Paw withdrawal threshold (AUC 0-4 hours) post-vehicle” with respect to vehicle group or “AUC of Paw withdrawal threshold (AUC 0-4 hours) post-drug” with respect to the compound example). Data were analysed by performing a one-way ANOVA followed by a Dunnett's post hoc test. For p values less than 0.05 the results were deemed to be statistically significant.

Structure (SMILES)	IC50 (IL-8 secretion) [µM]	IC50 (IL-6 secretion) [µM]	AUC of Paw withdrawal threshold (AUC 0-4 hours) post-drug ([1]; 3 mg/kg p.o., p < 0.05 vs vehicle (1083 ± 93 gf))	AUC of Paw withdrawal threshold (AUC 0-4 hours) post-drug ([1]; 10 mg/kg p.o., p < 0.01 vs vehicle (1083 ± 93 gf))	AUC of Paw withdrawal threshold (AUC 0-4 hours) post-drug ([1]; 30 mg/kg p.o., p < 0.0001 vs vehicle (1083 ± 93 gf))
COc1ccc(-c2ccc(NC(=O)C3(c4cccc(Cl)c4)CC3)cc2-c2nnn[nH]2)cc1OC [Example 1, 1-(3-Chlorophenyl)-N-[3′,4′-dimethoxy-2-(1H-tetrazol-5-yl)biphenyl-4-yl]cyclopropanecarboxamide]	0.06	0.225			
CCOc1ccc(-c2ccc(NC(=O)C3(c4cccc(Cl)c4)CC3)cc2-c2nnn[nH]2)cn1 [Example 253, 1-(3-Chlorophenyl)-N-[4-(6-ethoxypyridin-3-yl)-3-(1H-tetrazol-5-yl)phenyl]cyclopropanecarboxamide]	0.075	0.057	1415 ± 274 gf (*)	1439 ± 310 gf (**)	1649 ± 301 gf (***)

From patent US20210317092A1 (BAYER PHARMA AKTIENGESELLSCHAFT, priority 2016, published 2021)
